In ChEMBL document CHEMBL1201862, “PubChem BioAssay data set” (2004):
The source made the active and inactive calls.

Tests used:
[1] = target: T1, Rac GTPase-activating protein 1 (Homo sapiens, UniProt Q9H0H5); test: MgcRacGAP GTPase-activating activity inhibitors, confirmation, biochemical, ADP Hunter fluorescence, primary and confirmatory (AID 624330); format: functional
T1 sequence (Q9H0H5 whole entry): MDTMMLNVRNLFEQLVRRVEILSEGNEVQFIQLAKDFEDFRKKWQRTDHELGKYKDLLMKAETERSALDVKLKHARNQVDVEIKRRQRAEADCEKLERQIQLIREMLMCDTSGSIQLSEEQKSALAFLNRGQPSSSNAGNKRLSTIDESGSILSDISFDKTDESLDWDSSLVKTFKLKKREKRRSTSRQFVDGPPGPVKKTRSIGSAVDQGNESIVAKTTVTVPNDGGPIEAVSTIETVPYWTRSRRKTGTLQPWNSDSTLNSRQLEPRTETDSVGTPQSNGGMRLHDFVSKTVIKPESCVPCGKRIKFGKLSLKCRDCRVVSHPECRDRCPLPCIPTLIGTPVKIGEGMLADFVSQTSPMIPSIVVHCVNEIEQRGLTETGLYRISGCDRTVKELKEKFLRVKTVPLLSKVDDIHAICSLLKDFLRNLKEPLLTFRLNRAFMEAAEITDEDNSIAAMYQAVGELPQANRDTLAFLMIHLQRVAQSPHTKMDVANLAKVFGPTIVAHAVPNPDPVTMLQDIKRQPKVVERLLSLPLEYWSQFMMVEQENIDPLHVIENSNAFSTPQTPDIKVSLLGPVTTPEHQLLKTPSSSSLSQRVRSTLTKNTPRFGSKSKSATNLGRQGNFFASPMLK

[2] = target: T2, Heat shock factor protein 1 (Mus musculus, UniProt P38532); test: HSF1 potentiators in luciferase reporter cells, confirmation, cell-based, NIH3T3, luminescence, dose retest (AID 435004); format: functional;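 also: stress induced by proteasome inhibitor MG132 added 30 min after compound; luciferase reporter driven by HSF1 response element in NIH3T3 cells; actives raise luminescence as potentiators of the MG132 stress response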
T2 sequence (P38532 whole entry): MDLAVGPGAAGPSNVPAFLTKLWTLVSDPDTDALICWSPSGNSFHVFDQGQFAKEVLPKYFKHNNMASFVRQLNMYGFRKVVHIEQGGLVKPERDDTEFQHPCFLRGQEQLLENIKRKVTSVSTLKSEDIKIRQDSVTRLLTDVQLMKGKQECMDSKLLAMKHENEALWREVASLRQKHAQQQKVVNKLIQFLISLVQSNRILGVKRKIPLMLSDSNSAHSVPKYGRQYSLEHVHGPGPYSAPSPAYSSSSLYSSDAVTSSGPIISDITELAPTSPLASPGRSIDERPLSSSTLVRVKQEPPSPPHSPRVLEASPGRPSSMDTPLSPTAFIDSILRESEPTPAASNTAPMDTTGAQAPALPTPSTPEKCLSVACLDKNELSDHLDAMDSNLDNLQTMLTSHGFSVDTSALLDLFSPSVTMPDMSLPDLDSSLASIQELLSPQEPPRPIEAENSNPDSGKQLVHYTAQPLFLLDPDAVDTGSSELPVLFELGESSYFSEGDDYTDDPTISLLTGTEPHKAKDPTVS

[3] = target: T3, Mannose-6-phosphate isomerase (Homo sapiens, UniProt P34949); test: human PMI inhibitors, high substrate, primary screen, biochemical, fluorescence intensity, high mannose 6-phosphate (AID 1220)
T3 sequence (P34949 whole entry): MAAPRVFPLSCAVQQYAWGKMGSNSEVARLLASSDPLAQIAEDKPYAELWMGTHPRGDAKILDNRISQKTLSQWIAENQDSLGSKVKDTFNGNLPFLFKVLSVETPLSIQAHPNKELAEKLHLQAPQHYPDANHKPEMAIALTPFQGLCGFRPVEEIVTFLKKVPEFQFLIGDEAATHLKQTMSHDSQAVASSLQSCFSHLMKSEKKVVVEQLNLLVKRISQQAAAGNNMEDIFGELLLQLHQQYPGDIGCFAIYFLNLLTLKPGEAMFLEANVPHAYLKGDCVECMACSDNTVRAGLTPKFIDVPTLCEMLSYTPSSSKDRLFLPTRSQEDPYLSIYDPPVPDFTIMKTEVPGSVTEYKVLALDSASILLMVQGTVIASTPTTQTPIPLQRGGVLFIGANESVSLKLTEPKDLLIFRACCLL

[4] = test system: MDCK; test: antiviral activity against H1N1 influenza, dose response, cell-based, strain KY136 (AID 540257); format: functional; settings: Canis lupus familiaris
[5] = growth suppression of PTEN-null colon cells, dose response, cell-based, HCT116 PTEN knockout (AID 1047); format: functional;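 also: HCT116 colon tumor cells with PTEN knocked out; cells exposed to compound for 60 hours before readout; potency for loss of cell viability measured by luminescence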
[6] = growth suppression of beta-catenin-knockout colon cells, dose response, cell-based, HCT116, human colon tumor (AID 1045); format: functional;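 also: HCT116 colon tumor cells with beta catenin knocked out; cells exposed to compound for 60 hours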
[7] = target: Neurotensin receptor type 1 (Homo sapiens, UniProt P30989); format: functional;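 also: Image-based confirmatory dose-response assay measuring agonist activity at NTR1; NTR1-expressing U2OS osteosarcoma cells imaged for beta-arrestin GFP spot formation; agonist potency where compounds increase beta-arrestin recruitment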
Sequence of Neurotensin receptor type 1 (P30989 whole entry): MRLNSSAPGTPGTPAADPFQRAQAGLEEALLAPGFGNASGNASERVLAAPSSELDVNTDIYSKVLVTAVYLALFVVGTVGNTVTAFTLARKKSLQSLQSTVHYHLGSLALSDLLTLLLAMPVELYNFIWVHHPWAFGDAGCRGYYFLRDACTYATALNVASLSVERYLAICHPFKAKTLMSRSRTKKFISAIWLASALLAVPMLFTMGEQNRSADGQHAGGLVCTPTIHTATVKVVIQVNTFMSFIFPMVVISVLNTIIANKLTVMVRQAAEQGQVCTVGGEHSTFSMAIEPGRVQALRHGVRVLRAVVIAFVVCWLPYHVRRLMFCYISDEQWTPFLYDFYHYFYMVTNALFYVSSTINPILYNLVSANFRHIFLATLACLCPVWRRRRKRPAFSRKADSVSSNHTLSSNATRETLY

[8] = HeLa cell cytotoxicity, dose response, cytotoxicity control for MgcRacGAP inhibitor project (AID 624300); format: functional
[9] = target: Nonstructural protein 1 (Influenza A virus, UniProt Q194T2); format: functional, Influenza A virus (A/California/07/2009(H1N1))
Sequence of Nonstructural protein 1 (Q194T2 whole entry): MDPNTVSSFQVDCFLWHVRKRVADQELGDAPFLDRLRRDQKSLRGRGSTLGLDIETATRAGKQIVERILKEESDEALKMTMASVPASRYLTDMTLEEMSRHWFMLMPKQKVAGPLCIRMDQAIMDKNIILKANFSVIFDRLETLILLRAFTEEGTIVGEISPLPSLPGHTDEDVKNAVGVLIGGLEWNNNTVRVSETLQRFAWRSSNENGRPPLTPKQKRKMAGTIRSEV

[10] = target: Beta-adrenergic receptor kinase 1 (Homo sapiens, UniProt P25098); test: GRK2 inhibitors displacing RNA aptamer, dose response, biochemical, flow cytometry beads, FAM-aptamer, powder set 1 (AID 588720)
Sequence of Beta-adrenergic receptor kinase 1 (P25098 whole entry): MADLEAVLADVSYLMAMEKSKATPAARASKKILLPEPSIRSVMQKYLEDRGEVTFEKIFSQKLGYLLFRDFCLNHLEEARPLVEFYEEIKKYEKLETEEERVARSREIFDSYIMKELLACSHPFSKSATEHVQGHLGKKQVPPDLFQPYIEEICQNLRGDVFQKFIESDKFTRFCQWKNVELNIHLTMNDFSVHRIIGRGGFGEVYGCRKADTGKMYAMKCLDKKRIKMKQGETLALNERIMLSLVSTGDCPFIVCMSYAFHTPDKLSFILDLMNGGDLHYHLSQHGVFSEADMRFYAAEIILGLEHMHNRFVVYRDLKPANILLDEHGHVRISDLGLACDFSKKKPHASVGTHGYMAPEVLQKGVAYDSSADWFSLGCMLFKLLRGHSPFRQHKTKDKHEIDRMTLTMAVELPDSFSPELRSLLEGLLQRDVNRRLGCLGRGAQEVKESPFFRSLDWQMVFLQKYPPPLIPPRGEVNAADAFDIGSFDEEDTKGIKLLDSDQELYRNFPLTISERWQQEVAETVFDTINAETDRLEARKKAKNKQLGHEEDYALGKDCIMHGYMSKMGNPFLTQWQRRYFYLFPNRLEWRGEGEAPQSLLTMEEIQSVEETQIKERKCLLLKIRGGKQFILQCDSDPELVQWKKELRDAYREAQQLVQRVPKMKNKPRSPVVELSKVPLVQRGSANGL

[11] = NIH-3T3 fibroblast cytotoxicity, dose response, cytotoxicity control, cell-based, fluorescence, Alamar Blue, secondary assay (AID 2327); format: functional;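 also: NIH-3T3 mouse fibroblasts cultured with fluconazole at 8 µg/mL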
[12] = target: T4, Cytochrome P450 1A2 (Homo sapiens, UniProt P05177);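 also: PubChem cytochrome P450 panel assay, CYP1A2 panel member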
T4 sequence (P05177 whole entry): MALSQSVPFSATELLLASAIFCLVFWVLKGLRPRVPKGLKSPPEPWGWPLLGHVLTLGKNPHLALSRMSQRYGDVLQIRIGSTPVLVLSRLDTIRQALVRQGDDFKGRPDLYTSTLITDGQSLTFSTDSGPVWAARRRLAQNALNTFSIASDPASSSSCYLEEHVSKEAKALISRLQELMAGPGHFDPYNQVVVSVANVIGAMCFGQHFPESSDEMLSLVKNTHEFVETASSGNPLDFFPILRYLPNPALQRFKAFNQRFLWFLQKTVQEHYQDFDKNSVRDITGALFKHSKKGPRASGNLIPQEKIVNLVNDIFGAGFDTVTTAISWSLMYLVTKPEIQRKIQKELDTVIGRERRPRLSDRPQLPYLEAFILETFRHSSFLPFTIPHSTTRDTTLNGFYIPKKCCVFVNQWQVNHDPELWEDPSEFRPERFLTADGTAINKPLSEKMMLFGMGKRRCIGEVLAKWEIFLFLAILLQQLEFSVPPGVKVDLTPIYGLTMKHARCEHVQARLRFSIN

[13] = cytotoxicity in HMLE control line with eGFP shRNA, dose response, counter-screen for HMLE_sh_ECad selective toxicity project, cell-based, HMLE_sh_eGFP, luminescence (AID 463074); format: functional, Homo sapiens;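 also: HMLE human mammary epithelial cells expressing control shRNA against eGFP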
[14] = Luminescence Cell-Based Dose Retest to Confirm Inhibitors of Cancer Stem Cells. [Related pubchem assays (depositor defined):AID2717, AID2721]; format: functional; settings: Homo sapiens
[15] = C. albicans growth with fluconazole, confirmation, fluorescence, retest (AID 2467); format: functional, cell-based
[16] = target: Opioid receptors; mu & delta (Homo sapiens, UniProt P41143+P35372); test: agonists of MOR-DOR heterodimerization, dose response, cell-based, luminescence (AID 588407); format: functional
[17] = target: 5-hydroxytryptamine receptor 5A (Homo sapiens, UniProt P47898); test: Counterscreen for agonists of OPRM1-OPRD1 heterodimerization: luminescence-based cell-based high throughput dose response assay to identify agonists of 5-hydroxytryptamine (serotonin) 5A receptor (HTR5A). [Related pubchem assays (depositor defined):AID504326, AID504355, AID504692, AID504904, AID504905]; format: functional
Sequence of 5-hydroxytryptamine receptor 5A (P47898 whole entry): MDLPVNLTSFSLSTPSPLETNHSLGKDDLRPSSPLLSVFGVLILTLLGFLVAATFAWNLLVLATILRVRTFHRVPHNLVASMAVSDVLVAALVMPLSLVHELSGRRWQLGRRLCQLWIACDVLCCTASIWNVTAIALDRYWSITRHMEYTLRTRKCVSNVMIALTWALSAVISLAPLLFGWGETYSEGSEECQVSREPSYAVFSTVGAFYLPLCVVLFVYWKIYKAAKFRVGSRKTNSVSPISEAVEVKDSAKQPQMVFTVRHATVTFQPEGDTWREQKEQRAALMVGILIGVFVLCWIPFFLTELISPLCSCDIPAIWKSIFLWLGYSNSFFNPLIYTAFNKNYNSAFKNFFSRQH

[18] = target: T5, Short transient receptor potential channel 4 (Mus musculus, UniProt Q9QUQ5); test: mouse TRPC4 channel activators, dose response, cell-based, HEK293 TRPC4/mu-opioid, Fluo-4 calcium (AID 434937); format: functional
T5 sequence (Q9QUQ5 whole entry): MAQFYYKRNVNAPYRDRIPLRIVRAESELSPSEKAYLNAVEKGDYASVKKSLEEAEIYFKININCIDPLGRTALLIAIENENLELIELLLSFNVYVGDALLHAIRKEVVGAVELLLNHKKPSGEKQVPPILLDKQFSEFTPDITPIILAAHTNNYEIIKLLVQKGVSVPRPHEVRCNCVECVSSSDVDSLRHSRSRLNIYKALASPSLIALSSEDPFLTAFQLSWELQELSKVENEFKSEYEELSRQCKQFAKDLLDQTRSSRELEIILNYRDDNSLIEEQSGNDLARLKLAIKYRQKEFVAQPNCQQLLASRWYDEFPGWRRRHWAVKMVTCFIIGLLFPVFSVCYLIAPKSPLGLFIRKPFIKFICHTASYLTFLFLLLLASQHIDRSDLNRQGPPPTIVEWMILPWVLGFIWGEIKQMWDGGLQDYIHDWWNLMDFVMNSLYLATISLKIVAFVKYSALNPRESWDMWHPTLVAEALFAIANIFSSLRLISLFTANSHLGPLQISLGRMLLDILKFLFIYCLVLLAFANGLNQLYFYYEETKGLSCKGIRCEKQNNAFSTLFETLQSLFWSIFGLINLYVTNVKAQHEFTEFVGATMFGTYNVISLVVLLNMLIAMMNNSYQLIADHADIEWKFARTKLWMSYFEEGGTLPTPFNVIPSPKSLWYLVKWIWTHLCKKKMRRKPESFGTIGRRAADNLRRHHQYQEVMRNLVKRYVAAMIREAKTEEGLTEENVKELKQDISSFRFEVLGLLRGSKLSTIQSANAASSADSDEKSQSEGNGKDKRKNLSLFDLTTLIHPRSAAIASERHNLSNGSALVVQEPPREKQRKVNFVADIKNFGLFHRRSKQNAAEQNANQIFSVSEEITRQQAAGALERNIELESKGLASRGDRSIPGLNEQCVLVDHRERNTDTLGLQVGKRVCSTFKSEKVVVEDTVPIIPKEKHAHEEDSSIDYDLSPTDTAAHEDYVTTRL

[19] = target: Delta-type opioid receptor (Homo sapiens, UniProt P41143); test: Counterscreen for agonists of heterodimerization of the mu 1 (OPRM1) and delta 1 (OPRD1) opioid receptors: Luminescence-based cell-based high throughput dose response assay to identify agonists of OPRD1 homodimerization. [Related pubchem assays (depositor defined):AID504326, AID504355, AID504692, AID504904, AID504905]; format: functional
Sequence of Delta-type opioid receptor (P41143 whole entry): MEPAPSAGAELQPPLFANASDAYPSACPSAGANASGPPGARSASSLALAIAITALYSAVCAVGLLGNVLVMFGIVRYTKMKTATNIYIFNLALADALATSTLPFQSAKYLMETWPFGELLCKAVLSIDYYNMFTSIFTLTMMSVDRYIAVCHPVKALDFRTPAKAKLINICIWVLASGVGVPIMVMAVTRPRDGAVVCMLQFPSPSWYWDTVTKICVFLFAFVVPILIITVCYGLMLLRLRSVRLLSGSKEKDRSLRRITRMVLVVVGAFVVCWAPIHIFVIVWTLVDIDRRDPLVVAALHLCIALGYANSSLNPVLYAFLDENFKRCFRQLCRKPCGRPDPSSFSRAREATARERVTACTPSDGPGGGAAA

[20] = target: Mu-type opioid receptor (Homo sapiens, UniProt P35372); test: Counterscreen for agonists of heterodimerization of the mu 1 (OPRM1) and delta 1 (OPRD1) opioid receptors: Luminescence-based cell-based high throughput dose response assay to identify agonists of OPRM1 homodimerization.; format: functional;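 also: U2OS cells expressing OPRM1 and beta-arrestin as split beta-galactosidase partners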
Sequence of Mu-type opioid receptor (P35372 whole entry): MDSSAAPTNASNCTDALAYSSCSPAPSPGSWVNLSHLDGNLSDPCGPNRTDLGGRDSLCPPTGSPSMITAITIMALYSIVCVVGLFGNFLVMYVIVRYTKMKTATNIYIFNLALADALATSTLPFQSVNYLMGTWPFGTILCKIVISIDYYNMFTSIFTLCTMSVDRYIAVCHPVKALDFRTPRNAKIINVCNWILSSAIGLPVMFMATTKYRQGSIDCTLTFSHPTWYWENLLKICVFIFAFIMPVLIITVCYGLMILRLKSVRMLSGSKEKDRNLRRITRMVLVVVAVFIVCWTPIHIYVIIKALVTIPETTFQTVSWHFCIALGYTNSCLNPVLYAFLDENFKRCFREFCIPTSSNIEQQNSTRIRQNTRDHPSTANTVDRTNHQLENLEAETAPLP

**Q.** For `COC(=O)c1ccc2c(c1)C(C)(C)C(/C=C/c1ccc(O)cc1)=[N+]2C`, which IC50 [1] is on record?
**A.** Its IC50 is 29.5 µM (active).

**Q.** What about the EC50 [2] of the same compound?
**A.** Its EC50 is > 260 µM (inconclusive).

**Q.** And the IC50 [3]?
**A.** Its IC50 is > 50 µM (not active).

**Q.** What about the IC50 [4] of the same compound?
**A.** Its IC50 is 5.29 µM (active).

**Q.** What about the EC50 [5] of the same compound?
**A.** The EC50 was 2.06 µM (active).

**Q.** What about the EC50 [6] of the same compound?
**A.** Its EC50 is 2.15 µM (active).

**Q.** And the EC50 [7]?
**A.** The EC50 was 7.59 µM (active).

**Q.** What about the CC50 [8] of the same compound?
**A.** The CC50 was 35.1 µM (active).

**Q.** What about the IC50 [9] of the same compound?
**A.** Its IC50 is 20.2 µM (active).

**Q.** For `COc1ccc(NC(=O)CCS(=O)(=O)c2ccc(Br)s2)cc1`, which EC50 [10] is on record?
**A.** The EC50 was 9.14 µM (active).

**Q.** With `CCCc1ccc(C2C3=C(CC(C)(C)CC3=O)N=C3C2=C(O)c2ccccc23)cc1` (stereo not given) as the compound, how does the EC50 [11] read?
**A.** The EC50 was > 150 µM (inactive).

**Q.** And the AC50 [12]?
**A.** The AC50 was 6.31 µM (inconclusive).

**Q.** What about the AC50 [13] of the same compound?
**A.** The AC50 was 187 µM (active).

**Q.** What about the AC50 [14] of the same compound?
**A.** Its AC50 is 24.9 µM (active).

**Q.** What about the EC50 [15] of the same compound?
**A.** The EC50 was 2.66 µM (active).

**Q.** Which results are given for `CN(C)CCCN(C(=O)c1ccc(S(=O)(=O)N(C)C2CCCCC2)cc1)c1nc2ccc(F)cc2s1.Cl`?
**A.** EC50 [16]: > 0.3805 µM; EC50 [17]: > 92.5 µM (inactive); EC50 [18]: 1.88 µM (active); EC50 [19]: 69.2 µM (inactive); EC50 [20]: 4.85 µM (active)
